Like-named read-outs stand apart in the source and are kept apart here.
What was measured:
[1] = tested on: cardiomyocytes (left ventricle myocardium; uptake via L-type calcium channels); experiment: Manganese-enhanced T1 mapping MRI, kinetic analysis of cardiomyocyte cellular manganese uptake after MnDPDP infusion; format: in vivo, human
Description: A midventricular short axis view was used and a region of interest in the left ventricle myocardium and a region of interest in the blood in the ventricular cavity was used for measurements. […] The total infusion time was 7.5 minutes. T1 mapping MRI was performed every 2.5 minutes for a total of 40 minutes to collect data for kinetic analysis.
After the examination, the myocardial T1 values were converted to changes in relaxation rates from the baseline values according to equation 12. The heamocrit for the subject was measured to 0.44 and the plasma T1 values were converted to changes in relaxation rates according to equation 13.
This is what would be expected from the loss of cells without a loss of individual cell function. Thus, by applying the prior art method, it would therefore wrongly be concluded that the cellular manganese flux rate was reduced.
The rate constant for cardiomyocyte intracellular relaxivity increase Kcell^ΔR1, and thus the cardiomyocyte cellular manganese uptake rate Kcell^Mn, was calculated according to the invention, applying equation 20 where the constant KECF was set equal to 1. The Kcell^Mn value was 0.0650 min^−1. The data used to calculate the rate constant is shown graphically in FIG. 8 (“ict”), corresponding to a straight line with slope=Kcell^Mn=0.0650 min^−1 and intercept=ECV=0.35. […]
If the ECF was in equilibrium with plasma, the slope would be the ECV=0.322. However, due to the uptake of manganese into the cardiomyocytes, the ECF is in dynamic equilibrium with plasma with a manganese concentration ratio of
Assuming that the rate constant for diffusion between plasma and the ECF is the same in both directions, K1=K2 and K3/K1=1/KECF−1=1/0.72−1=0.40.
When the ratio between the manganese concentration in the ECF and plasma can be estimated, the apparent cellular rate constant Kcell^Mn*KECF can be converted to the actual cellular uptake rate constant Kcell^Mn by division with KECF.

[2] = corresponds to end of infusion
Description: A midventricular short axis view was used and a region of interest in the left ventricle myocardium and a region of interest in the blood in the ventricular cavity were used for measurements. […] The total infusion time was 7.5 minutes. T1 mapping MRI was performed every 2.5 minutes for a total of 40 minutes to collect data for kinetic analysis.
After the examination, the myocardial T1 values were converted to changes in relaxation rates from the baseline values according to equation 12. The heamocrit for the subject was measured to 0.41 and the plasma T1 values were converted to changes in relaxation rates according to equation 13.
A midventricular short axis view was used in each patient and a region of interest in the left ventricle myocardium and a region of interest in the blood in the ventricular cavity was used for measurements. […] The total infusion time was 7.5 minutes. T1 mapping MRI was performed every 2.5 minutes for a total of 40 minutes to collect data for kinetic analysis.
After the examinations, the myocardial T1 values were converted to changes in relaxation rates from the baseline values according to equation 12. The average heamocrit for the 5 subjects was measured to 0.416 and the plasma T1 values were converted to changes in relaxation rates according to equation 13.

Cc1ncc(COP(=O)(O)O)c(CN(CCN(CC(=O)[O-])Cc2c(COP(=O)(O)O)cnc(C)c2O)CC(=O)[O-])c1O.[Mn+2] [MnDPDP, manganese (II) N,N′-dipyridoxyl-ethylenediamine-N,N′-diacetate-5,5′-bis(phosphate)]
cardiomyocyte cellular manganese uptake rate Kcell^Mn (corrected by division with KECF) ([1]; average of 5 patients with hypertrophic cardiomyopathia, KECF 0.72): 0.096 | apparent cellular rate constant Kcell^Mn*KECF ([1]; average of 5 patients with hypertrophic cardiomyopathia, linear regression without restrictions to the intercept): 0.0691 | slope of the Patlak line (prior art method) ([1]; healthy volunteer, 5 μmol/kg infusion over 7.5 min): 0.0484 min⁻¹ | cardiomyocyte cellular manganese uptake rate Kcell^Mn ([1]; healthy volunteer, 5 μmol/kg infusion over 7.5 min, equation 20, KECF set to 1, forced intercept ECV 0.25): 0.0591 min⁻¹ | uptake rate constant by the Patlak method of prior art ([1]; patient with dilated cardiomyopathia, 5 μmol/kg infusion over 7.5 min): 0.0429 | cardiomyocyte cellular manganese uptake rate Kcell^Mn ([1]; patient with dilated cardiomyopathia, 5 μmol/kg infusion over 7.5 min, equation 20, KECF set to 1, forced intercept ECV 0.35): 0.0650 min⁻¹ | time at which plasma ΔR1 is highest ([2]; average of 5 patients with hypertrophic cardiomyopathia): 7.5 min | time at which plasma ΔR1 is highest ([2]; healthy volunteer): 7.5 min | time at which plasma ΔR1 is highest ([2]; patient with dilated cardiomyopathia): 7.5 min

— patent publication US20240277246A1, “MANGANESE-ENHANCED MAGNETIC RESONANCE IMAGING” (IC Targets AS, priority 2021, published 2024)
